Assay results as given in patent US12173344B2, “Fluorescent fusion based heterologous peptide production” (Stellenbosch University, priority 2020, dated 2024).
Where no end group is shown, it is not given here.

Key:
Type in all cases: cell-based
Erythrocyte = Erythrocyte lysis (haemolysis) assay; conditions: fusion not cleaved
Description: FIG. 18: Top Panel-SDS-PAGE of purified GFP-LLO and LLO used in erythrocyte lysis assay. Left: Stained gel. Right: Fluorescent image of GFP-LLO and GFP, L: Ladder (NEB ladder #P7712), 1: Uncut GFP-LLO, 2: Cleaved, IMAS purified and desalted LLO. A: GFP-LLO, B: LLO. Bottom Panel-Erythrocyte haemolysis following GFP-LLO exposure at varying pH. Relative haemoglobin absorbance was collected at 540 nm, values expressed as percentage of positive control, mean±SEM (n=3), Analysis via t-test concluded *=p<0.001, ***=p<0.0001 vs Untreated.

[1] = system: Listeria monocytogenes EDG-e; experiment: Antilisterial activity, spot plate and SDS-PAGE agar overlay
Protocol: While the respective bacteriocins were fused to GFP and produced a fluorescent complex, it was important to determine that antimicrobial activity was due to the liberated bacteriocin. Antimicrobial activity of plantaricin 423 and mundticin ST4SA was assessed against Listeria monocytogenes EDG-e grown on Brain Heart Infusion media (BHI) containing […] chloramphenicol. The spot plate method was performed on solid medium (1% w/v agar) seeded with Listeria monocytogenes EDG-e. SDS-PAGE separations were assayed for activity by casting the polyacrylamide gel in an agar bilayer seeded with Listeria monocytogenes EDG-e. Before casting, the poly acrylamide gels were fixed for 20 min in a 25% isopropanol, 10% acetic acid fixing solution and then rinsed 3×15 min with sterile ultra-pure water.
Cleavage parameters were optimized using a modified method from that supplied by the manufacturer. The WELQut-to-Sample ratios were set to 1:100, 1:50, 1:25, 1:5 (v/v) for 50 μL samples of GFP-PlaX and GFP-MunX, respectively, and diluted to a final volume of 250 μL in WELQut cut buffer. The approximate corresponding units of WELQ to 466.5 μg of GFP-PlaX was 2.5 U, 5 U, 10 U and 50 U respectively. The approximate corresponding units of WELQ to 547.5 μg of GFP-MunX was 2.5 U, 5 U, 10 U and 50 U respectively. Cleavage reactions were incubated at 28° C., and 50 μL samples were collected at 2 h, 4 h, 8 h, and 16 h, respectively. Cleavage was assessed by the spot plate method using BHI solid medium (1% w/v agar) seeded with Listeria monocytogenes EGD-e.
Mundticin ST4SA and plantaricin 423 were cleaved from one millilitre of His-tag purified GFP-MunX and GFP-PlaX, respectively, under optimal cleavage conditions. Cleavage reactions were purified using high performance liquid chromatography (HPLC), single peaks were spot tested for antilisterial activity.

Lactobacillus sakei = experiment: Antimicrobial activity (clear zones on plates) against Lactobacillus sakei
Protocol: (§1) For initial antimicrobial efficacy testing, both GFP-fused and non-GFP-fused pLanthipeptides were loaded (GFP-pNisin and GFP-pPep5) and cleaved directly in wells with trypsin (5 μg/mL for GFPpNisin) or thrombin (3 U/100 μL for GFP-pPep5). Antimicrobial activity was evaluated against Lactobacillus sakei for nisin and against S. carnosus for GFP-pPep5. Plates were incubated at 30° C. overnight until visible clear zones were observed. Lactobacillus sakei was cultured in MRS broth or agar and S. carnosus was cultured in Mueller Hinton Broth or agar.
(§2) GFP-pLanthipeptides were cleaved at 37° C. for 4 h and 20 h, with thrombin or hNisP. Heterologously expressed hNisP was added to concentrations of 0.01 ng/μL, 5 ng/μL, 10 ng/μL, 50 ng/μL and 70 ng/μL. Thrombin was added at 0.75 U, 4.5 U, 3 U and 6 U. Cleavage reactions were performed in 100 μL reactions and protein concentrations of GFP-pLanthipeptides were adjusted to final concentrations of 1 mg/ml with the exception of GFP-pPep5Th which was adjusted to 0.9 mg/mL. Cleavage reactions were stopped by the addition of protease inhibitors. Antimicrobial activity was evaluated against Lb. sakei and S. carnosus for GFP-pNisin (30 μL) and GFP-pPep5 (80 μL), respectively. Plates were incubated at 30° C. overnight until visible clear zones were observed. Samples were separated using SDS-PAGE.

S. carnosus = experiment: Antimicrobial activity (clear zones on plates) against S. carnosus; conditions: thrombin and hNisP, 4 h and 20 h cleavage
Protocol: as §1, §2

[2] = after cleavage / liberation of the core peptide, expression at 26° C.

GFP-LLO
Activity of LLO while fused to fluorescent partner (Erythrocyte): still has activity

GFP-MunX: GFP fused to mature mundticin ST4SA with WELQut cleavage site (SEQ ID NO:32)
Antilisterial activity at the band location ([1]; SDS-PAGE gel overlay after WELQut cleavage, zone at the size/location of the named species): zones of antilisterial activity
Antilisterial activity ([1]; WELQut cleaved samples, SDS-PAGE gel overlay): clear zones
Specific activity ([1]; cleaved fusion protein, compared with the other GFP-bacteriocin): higher specific activity
Antilisterial activity ([1]; uncleaved fusion protein, spot plate): did not show antilisterial activity

GFP-pNisin: N-terminal His tagged GFP with WELQut site fused to precursor nisin (SEQ ID NO:28/30)
Antimicrobial activity (Lactobacillus sakei; [2]): highest activity
Antimicrobial activity (Lactobacillus sakei; after cleavage with trypsin, expression at a range of temperatures, induction times and IPTG concentrations): activity was detected
Antimicrobial activity (Lactobacillus sakei; uncleaved sample): absent

HispNisin: His-tagged precursor nisin, no fluorescent fusion (MSTKDFNLDLVSVSKKDSGASPRITSISLCTPGCKTGALMGCNMKTATCHCSIHVSK; cysteine pairing not given here; also: His tag, not shown in chain; UniProt P13068 1-57, looked up)
Antimicrobial activity (Lactobacillus sakei; [2]): decrease
Antimicrobial activity (Lactobacillus sakei; after cleavage with trypsin, expression at 18° C., soluble and insoluble fractions): highest activity
Antimicrobial activity (Lactobacillus sakei; after cleavage with trypsin, expression at 37° C.): substantial loss in activity

Pep5: lanthipeptide liberated from GFP-pPep5 by thrombin or hNisP (TAGPAIRASVKQCQKTLKATRLFTVSCKGKNGCK; also: lanthipeptide (lantibiotic) thioether rings, not placed; UniProt P19578 27-60, looked up)
Effect on antimicrobial activity of increasing concentration and cleavage time (S. carnosus): detrimental effect
